The values below come from ChEMBL document CHEMBL3832046, “DailyMed|setid=1da7847b-16e4-4bf1-957f-3894d023b339 | VIAGRA - sildenafil citrate tablet, film coated|PD-Rx Pharmaceuticals, Inc”.

The test system of one data set is Homo sapiens. Nature of the data set: (§1) Pharmacokinetic parameters for Sildernafil following oral administration of Sildernafil citrate tablets (Viagra). Format: ADME, organism-based. The settings on record: in vivo, po, dosed compound id 36, dosed compound name SILDERNAFIL CITRATE, tissue Plasma.
Data set [1] can be described thus: as §1. Format: ADME, organism-based. As to conditions: human, in vivo, dosed compound id 36, dosed compound name SILDERNAFIL CITRATE, tissue Plasma.

`CCCc1nn(C)c2c(=O)[nH]c(-c3cc(S(=O)(=O)N4CCN(C)CC4)ccc3OCC)nc12.O=C(O)CC(O)(CC(=O)O)C(=O)O` [SILDENAFIL CITRATE] displayed a Vss in the data set on Homo sapiens of 105 L. The Tmax (commonly the time at which the peak concentration occurs) in data set [1] (dietary status Fasting) amounted to 1 h. In addition, the bioavailability – broadly, the share of a dose that reaches the circulation, judged against a reference dose that is usually intravenous – in data set [1] came to 41%.
